From patent US12016862B2, “Methods and compositions comprising a KRasG12C inhibitor and a VEGF inhibitor for treating solid tumors” (Genentech, Inc., priority 2020, dated 2024)
“And” between values parts separate entries of the source, which are not always exact repeats. Equal values may be shown once. Read-outs that look alike come from different tables or passages of the source.

Key:
[1] = bevacizumab; cited from earlier work
[2] = tested on: KRAS^G12C-positive cancer cell lines; test: Growth inhibition of KRAS^G12C-positive versus KRAS^G12C-negative cancer cell lines; assay type: cell-based
[3] = tested on: NCI-H2122 (KRAS^G12C) NSCLC xenograft; test: Anti-tumor efficacy in NCI-H2122 NSCLC xenograft tumor model; assay type: in vivo, nude mice
Experimental: Anti-VEGFA 620.4.1.1 (Mu anti-VEGFA 620.4.1.1; hereafter referred to as anti-VEGF) was a solution in Histidine Buffer ([…], 0.02% Tween 20™, pH5.5). […] The anti-gD isotype control (Hu anti-gD 5B6; hereafter referred to as Isotype Control) was a solution in saline. […] The mice were housed in standard rodent micro-isolator cages and were acclimated to study conditions at least 3 days before tumor cell implantation. Only animals that appeared to be healthy and that were free of obvious abnormalities were used for the study. Human non-small lung carcinoma NCI-H2122 cells were obtained from the American Type Culture Collection (Rockville, MD) and harbor a G12C oncogenic mutation in K-RAS. […] Mice were distributed into four groups based on tumor volumes with n=10 mice per group. […] The isotope control and anti-VEGF antibodies were administered intravenously (IV) at 10 mg/kg for the first dose, and then dosed intraperitoneally (IP) at 5 mg/kg for subsequent doses on a twice weekly (BIW) schedule. Tumor sizes and mouse body weights were recorded twice weekly over the course of the study. […] Fred V. Fowler Co.; Newton, MA) and analyzed using Excel, version 14.2.5 (Microsoft Corporation; Redmond WA). […] A generalized additive mixed model (GAMM) was employed to analyze transformed tumor volumes over time as this approach addresses both repeated measurements from the same study subjects and modest dropouts before study end (Lin et al. Wiley Online Library; 1999; 61:381-400 and Liang Biometrical Journal. Wiley Online Library; 2005; 47:358-68). […] Estimates of efficacy were obtained by calculating the percent difference between the daily average baseline-corrected AUC of the relevant group fits on the original (i.e., untransformed) scale over a common time period.

[4] = Risks associated with administration of study drugs; assay type: in vivo; conditions: Compound 1
From the text: Risks Associated with Compound 1.
Risks Associated with Bevacizumab.

[5] = number of mice of n=10, same dosing, 21 days

Compound | risks associated with administration [1] | selectivity in growth inhibition for KRAS^G12C-positive over KRAS^G12C-negative cancer cell lines [2] | % TGI (estimated) ([3]; NCI-H2122 xenografts in nude mice, n=10, Compound 1 50 mg/kg PO QD, anti-VEGF 10 mg/kg IV first dose then 5 mg/kg IP BIW, 21 days, based on AUC, relative to vehicle controls) | mice showing reductions in initial tumor size ([3]; initial tumor response, n=10 per group) | TI (tumor incidence) ([3]; n=10 per group, same dosing, 21 days) | CR (complete responses, 100% decrease in tumor volume) [3, 5] | PR (partial responses, >50% decrease from the initial tumor volume) [3, 5] | anti-tumor effect in words ([3]; single agent treatment) | mice showing increases in tumor volume ([3]; within the first week of treatment, of 10 mice) | risks associated with administration [4]
Bevacizumab: recombinant humanized anti-VEGF monoclonal antibody generated according to Presta et al. | gastrointestinal perforations, surgery and wound healing complications, hemorrhage | – | – | – | – | – | – | – | – | –
C=CC(=O)N1CCN(c2nc(OC[C@@H]3CCCN3C)nc3c(F)c(-c4nc(N)cc(C)c4C(F)(F)F)c(Cl)cc23)[C@@H](C)C1 (atropisomer, axis not shown) [Compound 1] | – | over 20,000 fold | 98% | 50% | 10/10 | 0 | 2/10 and 2 | tumor stasis | 5/10 | diarrhea, nausea, vomiting, oral mucosal irritation, minimal to mild transaminase elevation, and phototoxicity
